# Experimental data: the supplement of paper PMC10307832
# Assays:
# Assay in all cases: relative viability (nuclei count vs DMSO), 5 days (fraction); higher = more cells survive
# [1] = compound: O=C(NC1CCNCC1)c1n[nH]cc1NC(=O)c1c(Cl)cccc1Cl [AT-7519] + Cc1nc(Nc2ncc(C(=O)Nc3c(C)cccc3Cl)s2)cc(N2CCN(CCO)CC2)n1 [Dasatinib] (partner 0.075 µM)
# How it was run: (§1)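 Values are medians from duplicate plates. Each reflects relative viability, defined as the nuclei count of treated wells over that of vehicle wells. Lung cancer cell lines in 1536-well plates were pin-tool dosed one day after seeding with one drug alone or with a fixed anchor-drug dose plus five library-drug doses (not always all listed) in √10 steps, then fixed, stained and imaged at 4× after 5 days.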
# [2] = compound: C1=CC2=C(C=C(C(=C2N=C1)O)N=NC3=CC4=C(C=C3)C=C(C=C4)S(=O)(=O)O)S(=O)(=O)O + C[C@@H](Oc1cc(-c2cnn(C3CCNCC3)c2)cnc1N)c1c(Cl)ccc(F)c1Cl [Crizotinib] (partner 1 µM)
# How it was run: as §1
# [3] = compound: O=C(NC1CCNCC1)c1n[nH]cc1NC(=O)c1c(Cl)cccc1Cl [AT-7519] + CCNC(=O)c1noc(-c2cc(C(C)C)c(O)cc2O)c1-c1ccc(CN2CCOCC2)cc1 [Luminespib] (partner 0.01 µM)
# How it was run: as §1
# [4] = compound: O=C(NC1CCNCC1)c1n[nH]cc1NC(=O)c1c(Cl)cccc1Cl [AT-7519] + CC1(C)CCC(c2ccc(Cl)cc2)=C(CN2CCN(c3ccc(C(=O)NS(=O)(=O)c4ccc(N[C@H](CCN5CCOCC5)CSc5ccccc5)c(S(=O)(=O)C(F)(F)F)c4)cc3)CC2)C1 [Navitoclax] (partner 0.5 µM)
# How it was run: as §1
Cell Line,relative viability ([1]; first compound 0.01 µM),relative viability ([1]; first compound 0.03162 µM),relative viability ([1]; first compound 0.3162 µM),relative viability ([1]; first compound 1 µM),relative viability ([2]; first compound 0.08 µM),relative viability ([2]; first compound 0.253 µM),relative viability ([2]; first compound 0.8 µM),relative viability ([2]; first compound 2.53 µM),relative viability ([2]; first compound 8 µM),relative viability ([3]; first compound 0.01 µM),relative viability ([3]; first compound 0.03162 µM),relative viability ([3]; first compound 0.3162 µM),relative viability ([3]; first compound 1 µM),relative viability ([4]; first compound 0.01 µM),relative viability ([4]; first compound 0.03162 µM),relative viability ([4]; first compound 0.3162 µM),relative viability ([4]; first compound 1 µM)
201T,0.586,0.528,0.609,0.662,1.1,1.07,1.02,1.09,0.995,1.12,1.07,1.04,1.05,1.19,1.17,1.27,1.25
A549,–,–,–,–,0.909,0.738,0.754,0.694,0.754,–,–,–,–,1.18,1.25,1.15,0.837
A-427,0.702,0.675,0.707,0.391,1.05,0.814,0.978,1,0.876,1.07,0.88,1.06,0.184,0.973,0.899,1.01,0.599
ABC-1,0.525,0.617,0.398,0.262,1.07,1.33,1.01,1.27,1.23,0.75,0.582,0.347,0.206,–,–,–,–
BEN,0.354,0.321,0.399,0.331,1.14,0.872,0.792,0.925,0.813,0.303,0.307,0.231,0.361,0.0644,0.0591,0.069,0.0528
CAL-12T,0.532,0.404,0.214,0.0899,0.69,0.528,0.711,0.932,0.717,0.438,0.509,0.15,0.0831,1.21,1.05,0.855,0.128
COR-L23,0.434,0.513,0.369,0.137,0.653,0.63,0.572,0.671,0.502,1,0.867,0.273,0.116,1.24,1.15,0.774,0.138
COR-L 105,0.366,0.334,0.259,0.23,0.999,0.71,0.797,0.881,0.717,0.776,0.942,0.68,0.521,0.766,0.721,0.644,0.347
Calu-6,–,–,–,–,0.96,0.761,0.763,0.817,0.821,–,–,–,–,1.09,0.89,0.901,0.115
ChaGo-K-1,0.583,0.501,0.611,0.543,1.12,1.16,1.13,1.21,1.12,0.607,0.544,0.669,0.522,0.971,1.39,0.726,0.982
EBC-1,–,–,–,–,0.231,0.197,0.197,0.183,0.162,–,–,–,–,0.368,0.347,0.329,0.159
EKVX,0.526,0.388,0.346,0.449,0.997,0.959,1,0.894,0.915,0.988,0.845,0.846,0.774,0.772,0.881,0.923,0.876
EMC-BAC-2,0.358,0.327,0.296,0.227,0.777,0.751,0.704,0.806,0.757,1.21,1.17,1.19,1.14,0.89,1.02,1.05,1.18
EPLC-272H,0.325,0.339,0.382,0.248,1.14,0.883,0.977,0.978,0.964,0.226,0.216,0.37,0.0726,1.13,1.01,1.31,0.972
H3255,0.441,0.417,0.409,0.313,0.842,1.02,0.834,0.669,0.874,0.902,0.936,0.938,0.974,0.463,0.491,0.647,0.431
HARA,0.265,0.28,0.314,0.211,1.1,1.01,1.03,1.02,1.04,0.71,0.533,0.412,0.398,1.07,1.12,1.12,0.97
HCC-15,0.669,0.584,0.433,0.191,0.957,0.851,0.806,0.824,0.77,0.293,0.413,0.343,0.214,0.632,0.639,0.647,0.351
HCC-44,–,–,–,–,0.935,0.767,0.807,0.819,0.859,1.13,1.03,0.636,0.235,1.01,0.86,0.997,0.958
HCC-78,0.368,0.397,0.335,0.364,0.388,0.336,0.328,0.337,0.203,–,–,–,–,0.743,0.664,0.901,0.685
HCC-366,0.729,0.571,0.435,0.308,0.759,0.445,0.404,0.618,0.46,–,–,–,–,1.07,1.16,1.07,0.672
HCC-827,0.299,0.298,0.207,0.249,0.97,0.886,0.971,0.911,0.998,0.603,0.61,0.566,0.334,0.991,1.1,0.996,0.995
